Reference: PMC5831633 (PLoS ONE, 2018)
Structures can show the parent of a compound that is named as a salt.

What was measured:
N1 and N2 sialidases = conditions: cited from earlier work
[1] = biological target: N2 neuraminidase (A/Chicken/HongKong/G9/1997 H9N2) (Influenza A virus, UniProt Q80H78); type: biochemical; conditions: pH 6.5; read-out: Km for the MUNANA substrate
[2] = biological target: N1 wild-type neuraminidase (A/Anhui/1/2005 H5N1) (Influenza A virus, UniProt A0A0C5AGB3); type: biochemical; conditions: pH 6.5; read-out: Km for the MUNANA substrate

SMILES | IC50 (N1 and N2 sialidases) [µM] | Km [1] [µM] | Km [2] [µM]
CCC(CC)OC1C(NC(C)=O)C(NCc2ccc(-c3ccccc3)cc2)C2C(C(=O)O)C12 (stereo not drawn) [Compound 4a] | 10 |  | 
CC(=O)N[C@H]1[C@H]([C@H](O)[C@H](O)CO)OC(Oc2ccc3c(C)cc(=O)oc3c2)(C(=O)O)C[C@@H]1O (stereo partly drawn) [MUNANA, 2-(4-methylumbelliferyl) α-D-acetylneuraminic acid sodium salt hydrate] |  | 70 ± 6.8 | 12.8 ± 1.9
